# Assay results taken from US4148996A, “3,7-Disubstituted cephalosporins” (Societa Farmaceutici Italia S.p.A., priority 1976, dated 1979).
# Read-outs that look alike come from different tables or passages of the source.
# Key:
# E.coli B = assay: in vitro MIC by serial dilution, E.coli B; assay type: cell-based; conditions: Escherichia coli, read-out: MIC (minimal inhibitory concentration)
# Method: (§1) A series of comparative tests was carried out in vitro with the method of serial dilutions in Penassay Seed Broth Difco inoculated with 10^4 bacteria/ml (overnight cultures).
# (§2) Table 1 below reports the results of the above assays as MIC (minimal inhibitory concentration, mcg/ml).
# S.abortivoequina = assay: in vitro MIC by serial dilution, S.abortivoequina; assay type: cell-based; conditions: Salmonella, read-out: MIC (minimal inhibitory concentration)
# Method: as §1, §2
# S.flexneri = assay: in vitro MIC by serial dilution, S.flexneri; assay type: cell-based; conditions: Shigella flexneri, read-out: MIC (minimal inhibitory concentration)
# Method: as §1, §2
# S.pyogenes = assay: in vitro MIC by serial dilution, S.pyogenes; assay type: cell-based; conditions: Streptococcus pyogenes, read-out: MIC (minimal inhibitory concentration)
# Method: as §1, §2
# Staphylococcus aureus = assay: in vivo therapeutic activity on mice experimentally infected with Staphylococcus aureus; parameters: species or system male Swiss Cobs albino mice; conditions: for ED50: Staphylococcus aureus, sc, 168 h, Table 2, 2 LD50/mouse i.p., subcutaneous treatment 4 h after infection, 7 days, read-out: ED50 (dose effective in curing 50% of the infected mice); for effectiveness on experimental staphylococcal infections: in words, compared with cephazolin and cephalothin
# Method: (§3) In vivo tests for therapeutic activity were carried out on mice experimentally infected with Staphylococcus aureus and Salmonella abortivoequina (Infective dose: 2 LD50 /mouse i.p.); groups of 6 male Swiss Cobs albino mice were used. The infected animals were treated by the subcutaneous route 4 h after infection. The mortality rate was recorded every day for 7 days. The activity was assessed as ED50 (Dose effective in curing 50% of the infected mice as mg/Kg--see Reed and Muench, Am. J. Hyg. 27, 493, 1938.)
# K.pneumoniae = assay: in vitro MIC by serial dilution, K.pneumoniae; assay type: cell-based; conditions: Klebsiella pneumoniae, read-out: MIC (minimal inhibitory concentration)
# Method: as §1, §2
# S.aureus = assay: in vitro MIC by serial dilution, S.aureus; assay type: cell-based, Staphylococcus aureus; conditions: for MIC: Staphylococcus aureus, read-out: MIC (minimal inhibitory concentration); for antistaphylococcal activity: in words, compared with cephazolin and cephalothin
# Method: as §1, §2
# P.mirabilis = assay: in vitro MIC by serial dilution, P.mirabilis; assay type: cell-based; conditions: Proteus mirabilis, read-out: MIC (minimal inhibitory concentration)
# Method: as §1, §2
# [1] = test system: Salmonella abortivoequina; assay: in vivo therapeutic activity on mice experimentally infected with Salmonella abortivoequina; parameters: species or system male Swiss Cobs albino mice; conditions: sc, 168 h
# Method: as §3
# S.typhimurium = assay: in vitro MIC by serial dilution, S.typhimurium; assay type: cell-based; conditions: Salmonella enterica, read-out: MIC (minimal inhibitory concentration)
# Method: as §1, §2
# [2] = E.coli B, serial dilutions in Penassay Seed Broth Difco, 10^4 bacteria/ml
# [3] = S.abortivoequina, serial dilutions in Penassay Seed Broth Difco, 10^4 bacteria/ml
# [4] = S.flexneri, serial dilutions in Penassay Seed Broth Difco, 10^4 bacteria/ml
# [5] = S.pyogenes, serial dilutions in Penassay Seed Broth Difco, 10^4 bacteria/ml
# [6] = K.pneumoniae, serial dilutions in Penassay Seed Broth Difco, 10^4 bacteria/ml
# [7] = S.aureus, serial dilutions in Penassay Seed Broth Difco, 10^4 bacteria/ml
# [8] = P.mirabilis, serial dilutions in Penassay Seed Broth Difco, 10^4 bacteria/ml
# [9] = mice infected with Salmonella abortivo equina, subcutaneous 4 h after infection, read-out: ED50
# [10] = S.typhimurium, serial dilutions in Penassay Seed Broth Difco, 10^4 bacteria/ml
Structure (SMILES),MIC (E.coli B; [2]) [µg/mL],MIC (S.abortivoequina; [3]) [µg/mL],MIC (S.flexneri; [4]) [µg/mL],MIC (S.pyogenes; [5]) [µg/mL],ED50 (Staphylococcus aureus) [mg/kg],MIC (K.pneumoniae; [6]) [µg/mL],MIC (S.aureus; [7]) [µg/mL],antistaphylococcal activity (S.aureus),MIC (P.mirabilis; [8]) [µg/mL],MIC (S.typhimurium; [10]) [µg/mL],other results
"O=C(Cc1ccccc1)NC1C(=O)N2C(C(=O)O)=C(CSc3cncc(Cl)n3)CSC12 (centres unmarked) [Compound 310, 7-phenylacetamido-3-(6-chlorpyrazin-2-ylthiomethyl)-3-cephem-4-carboxylic acid]",0.6,50,> 50,6.2,35,0.1,0.06,"excellent antistaphylococcal activity, clearly superior to that of known cephalosporins",–,–,–
"Cc1nnc(SCC2=C(C(=O)O)N3C(=O)[C@@H](NC(=O)Cn4cnnn4)[C@H]3SC2)s1 [cephazolin, reference compound]",1.25,1.25,1.5,1.25,30,0.6,0.1,–,3.1,1.5,"ED50 [1, 9]: 25 mg/kg"
"NC(=O)c1cncc(SCC2=C(C(=O)O)N3C(=O)C(NC(=O)Cc4ccccc4)C3SC2)n1 (centres unmarked) [Compound 311, 7-phenylacetamido-3-(6-carboxamidopyrazin-2-ylthiomethyl)-3-cephem-4-carboxylic acid]",5,> 50,12.5,1.5,17.5,1.5 to 2.5,0.06,–,> 50,–,effectiveness on experimental staphylococcal infections (Staphylococcus aureus): more effective than cephazolin and cephalothin
"O=C(Cc1cccs1)NC1C(=O)N2C(C(=O)O)=C(CSc3cnccn3)CSC12 (centres unmarked) [Compound 314, 7-(2-thienyl)-acetamido-3-pyrazinylthiomethyl-3-cephem-4-carboxylic acid]",0.6,–,6.25,1.25,20,0.6,0.003,–,25,–,MIC (S.abortivoequina): 6.25 µg/mL; MIC (S.typhimurium; TYPHIMURIUM): 6.25 µg/mL
"COc1cncc(SCC2=C(C(=O)O)N3C(=O)C(NC(=O)Cc4cccs4)C3SC2)n1 (centres unmarked) [Compound 321, 7-(2-Thienyl)-acetamido-3-(6-methoxypyrazin-2-ylthiomethyl)-3-cephem-4-carboxylic acid]",1.25,20,10,0.12,15,0.25,0.037,–,10,20,"ED50 [1, 9]: 50 mg/kg"
"O=C(CSc1cnccn1)NC1C(=O)N2C(C(=O)O)=C(CSc3cncc(Cl)n3)CSC12 (centres unmarked) [Compound 315, 7-pyrazinylthioacetamido-3-(6-chloropyrazin-2-ylthiomethyl)-3-cephem-4-carboxylic acid]",2.5,> 50,50,1.25,40,1.25,0.006,"excellent antistaphylococcal activity, clearly superior to that of known cephalosporins",> 50,> 50,–
"O=C(Cc1ccccc1)NC1C(=O)N2C(C(=O)O)=C(CSc3cnccn3)CS[C@H]12 (some centres unmarked) [Compound 308, 7-phenylacetamido-3-pyrazinylthiomethyl-3-cephem-4-carboxylic acid]",1 to 2,100,50,1.5,17.5,0.75,0.012,"excellent antistaphylococcal activity, clearly superior to that of known cephalosporins",50,–,effectiveness on experimental staphylococcal infections (Staphylococcus aureus): more effective than cephazolin and cephalothin
"O=C(Cc1ccccc1)NC1C(=O)N2C(C(=O)O)=C(CSc3c[n+]([O-])ccn3)CSC12 (centres unmarked) [356/307, 7-phenylacetamido-3-(pyrazin-2-ylthiomethyl-4-oxide)-3-cephem-4-carboxylicacid]",6,25,12.5,1.5,–,1.5,0.012,"excellent antistaphylococcal activity, clearly superior to that of known cephalosporins",–,–,–
"COc1nccnc1SCC1=C(C(=O)O)N2C(=O)C(NC(=O)Cc3cccs3)C2SC1 (centres unmarked) [Compound 317, 7-(2-thienyl)-acetamido-3-(3-methoxy-pyrazin-2-ylthiomethyl)-3-cephem-4-carboxylic acid]",1.5,> 50,50,–,–,1.5,0.005,–,50,> 50,–
"NC(=O)c1cncc(SCC2=C(C(=O)O)N3C(=O)C(NC(=O)Cc4cccs4)C3SC2)n1 (centres unmarked) [Compound 313, 7-(2-thienyl)-acetamido-3-(6-carboxamidopyrazin-2-ylthiomethyl)-3-cephem-4-carboxylic acid]",2.5,–,6.25,1.25,20,1.25,0.012,"excellent antistaphylococcal activity, clearly superior to that of known cephalosporins",50,12.5,MIC (S.abortivoequina): 6.25 µg/mL; effectiveness on experimental staphylococcal infections (Staphylococcus aureus): more effective than cephazolin and cephalothin
"O=C(Cn1cnnn1)NC1C(=O)N2C(C(=O)O)=C(CSc3cnccn3)CSC12 (centres unmarked) [Compound 318, 7-[1-(1H)-tetrazolylacetamido]-3-pyrazinylthiomethyl-3-cephem-4-carboxylic acid]",6.25,3.1,3.1,–,–,3.1,0.097,–,12.5,12.5,–
"CC(=O)OCC1=C(C(=O)O)N2C(=O)C(NC(=O)CSc3cnccn3)C2SC1 (centres unmarked) [Compound 312, 7-pyrazinylthioacetamidocephalosporanic acid]",–,25,–,3.1,40,1.5,–,–,–,–,MIC (E.coli B): 5 µg/mL; MIC (S.flexneri): 12.5 µg/mL; MIC (S.aureus): 0.12 µg/mL
"O=C(CSc1cnccn1)NC1C(=O)N2C(C(=O)O)=C(CSc3c[n+]([O-])ccn3)CSC12 (centres unmarked) [Compound 316, 7-pyrazinylthioacetamido-3-(pyrazin-2-ylthiomethyl-4-oxide)-3-cephem-4-carboxylic acid]",5,–,12.5,2.5,40,2.5,0.025,"excellent antistaphylococcal activity, clearly superior to that of known cephalosporins",> 50,50,MIC (S.abortivoequina): 12.5 µg/mL
"CC(=O)OCC1=C(C(=O)O)N2C(=O)[C@@H](NC(=O)Cc3cccs3)[C@H]2SC1 [cephalothin, reference compound]",1.25,–,1.5,–,30,–,0.1,–,–,–,MIC (S.abortivoequina): 1.5 µg/mL; MIC (S.pyogenes): 1.25 µg/mL; MIC (P.mirabilis): 6.2 µg/mL; ED50 ([1]; Salmonella): 50 mg/kg; MIC (S.typhimurium; TYPHIMURIUM): 3 µg/mL; MIC (K.pneumoniae): 0.3 µg/mL
